According to patent US6051718A, “PDE IV inhibiting 2-cyanoiminoimidazole derivatives” (Janssen Pharmaceutica, N.V., priority 1996, dated 2000):

The molecules below were run against T1, recombinant human MNL phosphodiesterase PDE IV B (Homo sapiens, UniProt Q07343) (assay: Inhibition of recombinant human mononuclear lymphocyte (MNL) phosphodiesterase type IV B produced in insect cells with a baculovirus vector). Conditions: 3H-cAMP 0.8 μM, 10 minutes, 37° C., pH 8, DMSO 1%.
T1 construct: made in house
T1 sequence (Q07343 whole entry): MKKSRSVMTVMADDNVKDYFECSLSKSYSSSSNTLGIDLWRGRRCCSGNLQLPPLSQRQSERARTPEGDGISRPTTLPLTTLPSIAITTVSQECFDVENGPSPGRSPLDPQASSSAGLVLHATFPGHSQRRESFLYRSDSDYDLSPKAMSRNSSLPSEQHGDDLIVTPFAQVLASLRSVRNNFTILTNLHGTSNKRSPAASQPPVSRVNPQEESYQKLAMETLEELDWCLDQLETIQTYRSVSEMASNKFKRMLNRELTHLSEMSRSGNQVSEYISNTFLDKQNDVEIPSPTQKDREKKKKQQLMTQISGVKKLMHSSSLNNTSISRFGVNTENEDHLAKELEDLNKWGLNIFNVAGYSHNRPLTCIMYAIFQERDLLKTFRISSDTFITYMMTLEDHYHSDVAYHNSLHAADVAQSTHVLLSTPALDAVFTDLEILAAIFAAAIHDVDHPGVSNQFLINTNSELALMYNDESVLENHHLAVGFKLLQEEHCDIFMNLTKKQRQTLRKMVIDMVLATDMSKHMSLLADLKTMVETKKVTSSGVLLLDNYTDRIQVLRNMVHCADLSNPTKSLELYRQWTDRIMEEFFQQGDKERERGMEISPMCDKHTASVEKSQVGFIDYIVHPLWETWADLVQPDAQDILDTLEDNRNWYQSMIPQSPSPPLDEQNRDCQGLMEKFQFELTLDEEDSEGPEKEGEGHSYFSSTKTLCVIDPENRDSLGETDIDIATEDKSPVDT
Assay type: biochemical
Description: Example C.1: Inhibition of Recombinant Human Mononuclear Lymphocyte (MNL) Phosphodiesterase Type IV B Produced in Insect Cells with a Baculovirus Vector
The alleviating and/or curing effect of the instant compounds on allergic and atopic diseases was assessed by an in vitro assay system to detect an inhibiting effect on the recombinant human MNL phosphodiesterase type IV B.
Seventy-two hours after infection with recombinant baculovirus, the insect cells were harvested and pelleted at 500 g for 5 minutes. The cells were lysed in 10 ml lysis-buffer consisting of 20 mM Tris, 10 mM EGTA, 2 mM Na2 EDTA, 1% Triton-X-100, 1 mM Na3 VO4, 10 mM NaF, 2 μg/ml of leupeptine, pepstatine and aprotinine, 0.3 μg/ml benzamidine and 100 μg/ml TPCK pH 7.5. After 5 minutes on ice, solubilized cells were centrifuged at 4000 rpm for 15 minutes at 4° C. The resulting supernatant was filtered through a 0.45 μm filter (Millipore) and brought to TBS buffer (50 mM Tris, 150 mM NaCl pH 7.4).
After washing the column with equilibration buffer, PDE IV was eluted in 1.5 ml fractions containing 37.5 μl 1M Tris pH 8. The fractions were dialyzed overnight against 20 mM Tris, 2 mM Na2 EDTA and 400 mM NaCl pH 7.5 and tested for PDE IV activity. Indentification was done on SDS PAGE and Western Blot (anti-FLAG-M2). Active fractions were pooled, brought to 10% glycerol and stored at -70° C.
The incubation mixture (pH 8) (200 μl) contained 20 mM Tris, 10 mM magnesium sulphate, 0.8 μM ^3 H-cAMP (310 mCi/mmole) and the phosphodiesterase type IV, the amount depending on the enzymatic activity. […] When the effect of different compounds on phosphodiesterase activity was tested, the medium without cAMP was incubated with the compound(s) or its carrier (DMSO-1% final concentration) for 5 minutes. […] After cooling to room temperature, alkaline phosphatase (0.25 μg/ml) was added and the mixture was incubated at 37° C. for 20 min. 100 μl of the mixture was subsequently applied to a GF-B filter-microtiter-plate (Millipore) filled with 300 μl DEAE-Sephadex-A25 suspension. The plate was washed 3 times with 75 μl 20 mM Tris pH 7.5 and the filtrates were collected for counting in the Packard Top Count scintillation counter.
The inhibiting effect of the present compounds on recombinant human MNL phosphodiesterase PDE IV B was measured at different concentrations of the instant compounds.
With COc1ccc(C(C)CN2CCNC2=NC#N)cc1OC1CCCC1 (racemic) [Compound 1, (±)-[1-[2-[3-(cyclopentyloxy)-4-methoxyphenyl]propyl]-2-imidazolidinylidene] cyanamide] the IC50 was 330 nM.
CC(Cn1cc[nH]c1=NC#N)c1ccc(OC(F)F)c(OC2CCOC2)c1 (racemic) [Compound 2, (±)-[1-[2-[4-(difluoromethoxy)-3-[(tetrahydro-3-furanyl)oxy]phenyl]-propyl]-1,3-dihydro-2H-imidazol-2-ylidene]cyanamide] gave an IC50 of 100 nM.
COc1ccc(C(C)Cn2ccnc2NC#N)cc1OC1CCCC1 (single isomer, unassigned) [Compound 12] gave an IC50 of 21.9 nM.
Work on COc1ccc(C(C)Cn2ccnc2NC#N)cc1OC1CCCC1 (single isomer, unassigned) [Compound 13] yielded an IC50 of 22.2 nM.
In the case of COc1ccc(C(C)Cn2ccnc2NC#N)cc1OCC1CC1 (single isomer, unassigned) [Compound 14], the IC50 is reported as 27.2 nM.
For COc1ccc(C(C)Cn2ccnc2NC#N)cc1OCC1CC1 (single isomer, unassigned) [Compound 15], the IC50 was 33.5 nM.
With COc1ccc(C(C)Cn2ccnc2NC#N)cc1OCCCCCc1ccccc1 (single isomer, unassigned) [Compound 18] the IC50 was 40.9 nM.
COc1ccc(C(C)Cn2ccnc2NC#N)cc1OCCCCCc1ccccc1 (single isomer, unassigned) [Compound 19] was tested, and the IC50 was 37.5 nM.
For COc1ccc(C(C)Cn2cc[nH]c2=NC#N)cc1OC1CCCC1 (centres unmarked) [Compound 3], the IC50 was 30 nM.
CC(Cn1cc[nH]c1=NC#N)c1ccc(OC(F)F)c(OC2CCCC2)c1 (centres unmarked) [Compound 4] showed an IC50 of 15.3 nM.
For N#CN=c1[nH]ccn1CCc1ccc(OC(F)F)c(OC2CCCC2)c1 [Compound 5], the IC50 was 26.6 nM.
With CC(Cn1cc[nH]c1=NC#N)c1ccc(OC(F)F)c(OCC2CC2)c1 (centres unmarked) [Compound 6] the IC50 was 22.4 nM.
Molecule COc1ccc(C(C)Cn2cc[nH]c2=NC#N)cc1OCC1CC1 (centres unmarked) [Compound 8] has an IC50 of 56.5 nM.
COc1ccc(C(C)Cn2cc[nH]c2=NC#N)cc1OCCCCCc1ccccc1 (centres unmarked) [Compound 9] was tested, and the IC50 was 36.1 nM.
COc1ccc(C(C)Cn2cc[nH]c2=NC#N)cc1OC1CCOC1 (centres unmarked) [Compound 10] gave an IC50 of 196 nM.
Work on CC(Cn1ccnc1NC#N)c1ccc(OC(F)F)c(OCCCCCc2ccccc2)c1 (centres unmarked) [Compound 11] yielded an IC50 of 32.7 nM.
In the case of COc1ccc(CCn2cc[nH]c2=NC#N)cc1OC1Cc2ccccc2C1 [Compound 20], the IC50 is reported as 76.5 nM.
